Source: PubChem BioAssay (NCI)
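Cultured in 96-well plates, cells were exposed to test compound for 48 hours across five concentrations. GI50 marks 50% less growth. At the TGI there is no net growth.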

Assays:
Experiment in all cases: NCI-60 cell line screen, 48 h
M14 melanoma = tested on: M14 melanoma
COLO 205 colon = tested on: COLO 205 colon
SNB-75 CNS = tested on: SNB-75 CNS
A549 NSCLC = tested on: A549 NSCLC
SF-268 CNS = tested on: SF-268 CNS
MDA-MB-435 = tested on: MDA-MB-435
SR leukemia = tested on: SR leukemia
HCC-2998 colon = tested on: HCC-2998 colon
IGROV1 ovarian = tested on: IGROV1 ovarian
786-0 renal = tested on: 786-0 renal

| SMILES | GI50 (M14 melanoma) | TGI (M14 melanoma) | GI50 (COLO 205 colon) | TGI (COLO 205 colon) | GI50 (SNB-75 CNS) | TGI (SNB-75 CNS) | GI50 (A549 NSCLC) | TGI (A549 NSCLC) | GI50 (SF-268 CNS) | TGI (SF-268 CNS) | GI50 (MDA-MB-435) | TGI (MDA-MB-435) | GI50 (SR leukemia) | TGI (SR leukemia) | GI50 (HCC-2998 colon) | TGI (HCC-2998 colon) | GI50 (IGROV1 ovarian) | TGI (IGROV1 ovarian) | TGI (786-0 renal) |
| --- | --- | --- | --- | --- | --- | --- | --- | --- | --- | --- | --- | --- | --- | --- | --- | --- | --- | --- | --- |
| CCN(CC)CCCCCCCCNc1c2ccc(Cl)cc2nc2ccc(OC)cc12 | 1.84 µM | 3.34 µM | 1.43 µM | 2.88 µM | 1.49 µM | 3.15 µM | 1.56 µM | 3.62 µM | 1.7 µM | 3.76 µM | 1.87 µM | 3.74 µM | 0.289 µM | 0.73 µM | 1.77 µM | 6.99 µM | 3.44 µM | 20.5 µM | – |
| COc1c2occc2c(OC)c2c(=O)c(S(=O)(=O)NC(=O)Nc3ccc(Cl)cc3)coc12 | – | > 10 µM | – | > 10 µM | – | – | – | > 10 µM | – | > 10 µM | – | > 10 µM | – | > 10 µM | – | > 10 µM | – | > 10 µM | > 10 µM |
| N#CCCNCCN(CCN(C(=O)Nc1ccccc1)c1ccccc1)C(=O)Nc1ccccc1 | – | 46.1 µM | – | 46.3 µM | – | > 100 µM | – | > 100 µM | – | > 100 µM | – | – | – | > 100 µM | – | 36 µM | – | > 100 µM | > 100 µM |
| COc1cc2c(cc1OCCCC(=O)Nc1cc(C(=O)Nc3cc(C(=O)Nc4cc(C(=O)NCCCN(C)C)n(C)c4)n(C)c3)n(C)c1)N=C[C@@H]1CCCN1C2=O | – | 3.11 µM | – | 3.15 µM | – | 9.95 µM | – | 36.1 µM | – | 3.31 µM | – | 3.48 µM | – | – | – | 28.2 µM | – | 8.74 µM | 2.37 µM |
| CO/C(=N\N=C\c1ccc(Cl)cc1)c1ccncc1 | – | > 100 µM | – | > 100 µM | – | > 100 µM | – | > 100 µM | – | > 100 µM | – | – | – | > 100 µM | – | > 100 µM | – | > 100 µM | – |
| O=C(CCc1cccc(O)c1)NCCc1cccc(O)c1 | – | > 100 µM | – | > 100 µM | – | – | – | > 100 µM | – | > 100 µM | – | > 100 µM | – | > 100 µM | – | > 100 µM | – | > 100 µM | > 100 µM |
| CC(=O)Nc1ccc2c(C(=O)O)c(C)c(=O)[nH]c2n1 | – | > 100 µM | – | > 100 µM | – | – | – | > 100 µM | – | > 100 µM | – | > 100 µM | – | – | – | – | – | > 100 µM | > 100 µM |
| COc1ccc(-c2oc3ccc(C)cc3c(=O)c2O)cc1 | – | > 100 µM | – | > 100 µM | – | > 100 µM | – | > 100 µM | – | > 100 µM | – | > 100 µM | – | – | – | > 100 µM | – | > 100 µM | > 100 µM |
| COc1ccc(C2SC(N)=Nc3c2c(C)nn3C(=O)c2ccncc2)cc1 (centres undefined) | – | > 100 µM | – | > 100 µM | – | > 100 µM | – | > 100 µM | – | > 100 µM | – | > 100 µM | – | 73 µM | – | – | – | > 100 µM | > 100 µM |
| CSc1nc2ccccc2c(=O)n1/N=C1\C(=O)N(CN2CCOCC2)c2ccc(Cl)cc21 | – | > 100 µM | – | 36.6 µM | – | > 100 µM | – | > 100 µM | – | > 100 µM | – | > 100 µM | – | – | – | – | – | > 100 µM | > 100 µM |
| COC(=O)C1=C(C)N2CCCOC2(C)C(C(=O)OC)C1c1cccc(Cl)c1 (centres undefined) | – | 74.7 µM | – | 37.9 µM | – | 42.3 µM | – | > 100 µM | – | > 100 µM | – | – | – | – | – | > 100 µM | – | > 100 µM | – |
| O=[N+]([O-])c1ccc2c(c1)nc(Cc1ccccc1)n2C[C@@H]1CCCN2CCCCC12 (some centres undefined) | – | 33.1 µM | – | 37.4 µM | – | > 100 µM | – | > 100 µM | – | > 100 µM | – | 35.5 µM | – | – | – | 33.2 µM | – | > 100 µM | 47.6 µM |
| Oc1nc(N/N=C/c2c[nH]c3ccccc23)[nH]c1/C=C1\C=Nc2ccccc21 | – | 75.9 µM | – | 26.7 µM | – | 78 µM | – | 42.3 µM | – | 43.1 µM | – | 62.4 µM | – | – | – | – | – | 41.2 µM | 37 µM |
| COC12C=C/C(=C(/C(=O)OCc3ccncn3)C(=O)CCCCCCCCC3(OC)C=C/C(=C(/C(=O)OCc4ccncn4)C(=O)CCCCCCCC1)O3)O2 | 0.286 µM | 3.23 µM | 0.348 µM | 1.32 µM | 1.52 µM | 17.7 µM | 0.363 µM | 1.49 µM | 0.314 µM | 1.92 µM | 0.194 µM | 0.405 µM | 0.296 µM | > 100 µM | 0.225 µM | 0.45 µM | 0.418 µM | 4.46 µM | – |
| Cc1nc2c(cc1C(=O)NN)c(=O)n(C)c(=O)n2C | – | > 100 µM | – | > 100 µM | – | > 100 µM | – | > 100 µM | – | – | – | > 100 µM | – | – | – | > 100 µM | – | > 100 µM | > 100 µM |
| CC/C(Cl)=N\OC(=O)Nc1ccc(OC)cc1 | – | 9.77 µM | – | 3.92 µM | – | 19.3 µM | – | 32.6 µM | – | 32.1 µM | – | 25.8 µM | – | – | – | 15.7 µM | – | 17.5 µM | 3.24 µM |
| CN(C)CCCn1c(Cc2ccccc2)nc2cc(C(F)(F)F)ccc21 | – | 30.4 µM | – | 34.7 µM | – | > 100 µM | – | 31.8 µM | – | > 100 µM | – | 32.4 µM | – | – | – | – | – | > 100 µM | 33.9 µM |
| CCNc1nc(N)c(C(=O)c2ccc(Cl)cc2)s1 | – | > 100 µM | – | 47 µM | – | – | – | 70.2 µM | – | > 100 µM | – | > 100 µM | – | – | – | – | – | > 100 µM | > 100 µM |
| NNC(=O)CC(=O)Nc1ccc(Cl)cc1 | – | – | – | > 100 µM | – | > 100 µM | – | > 100 µM | – | > 100 µM | – | > 100 µM | – | > 100 µM | – | > 100 µM | – | > 100 µM | > 100 µM |
| COC(c1ccsc1)C(C#N)(C#N)N=Cc1ccsc1 (centres undefined) | – | 33.7 µM | – | 33.1 µM | – | 29.9 µM | – | > 100 µM | – | 33.8 µM | – | 29.6 µM | – | – | – | 34 µM | – | 52 µM | 37.9 µM |
| O=C(O)CC(NC(=O)Nc1ccc([N+](=O)[O-])cc1)C(=O)Nc1ccc([N+](=O)[O-])cc1 (centres undefined) | – | > 100 µM | – | > 100 µM | – | > 100 µM | – | > 100 µM | – | > 100 µM | – | > 100 µM | – | – | – | > 100 µM | – | > 100 µM | > 100 µM |
| O=C1C=Cc2c(Cl)sc(Cl)c21 | – | 3.99 µM | – | – | – | 13.1 µM | – | > 90.6 µM | – | 3.58 µM | – | 5.31 µM | – | – | – | 13.8 µM | – | 3.09 µM | 2.44 µM |
